From patent US20220125746A1, “METHOD OF PREVENTING OR TREATING TREATMENT-INDUCED GASTROINTESTINAL INJURY” (priority 2019, published 2022)
Counter-ions that a name gives are not always drawn.

Experiments:
intestinal crypts = assay: CPT-11-induced intestinal crypt apoptosis in mice (TUNEL, active caspase-3)
Experimental: Puma+/+ (WT) and Puma−/− (Puma KO) mice (52) were generated in-house by heterozygote breeding. WT and Puma KO alleles were genotyped from genomic DNA isolated from tail snips, as described (52). p53−/− (p53 KO) mice were purchased from the Jackson Laboratory. […] All strains are in or have been backcrossed with the C57BL/6 background for more than 10 generations (F10). Mice were housed in microisolator cages in a room illuminated from 07:00 to 19:00 hours (12:12-hour light/dark cycle), with access to water and chow ad libitum.
Rehydrated sections were treated with 3% hydrogen peroxide (immunochemistry only), followed by antigen retrieval for 10 min in boiling 0.1 M citrate buffer (pH 6.0) with 1 mM EDTA. Apoptosis was analyzed by TUNEL staining with the ApopTag Peroxidase In Situ Apoptosis Detection kit (Chemicon International) according to the manufacturer's instructions.
Active caspase 3 IHC. Sections were deparaffinized and rehydrated through graded ethanols. Rehydrated sections were then treated with 3% hydrogen peroxide, followed by antigen retrieval for 10 minutes in boiling 0.1 M citrate buffer (pH 6.0) with 1 mM EDTA. Non-specific antibody binding was blocked using 20% goat serum (Invitrogen) at room temperature for 30 minutes.

BIM/MCL-1 = target: T1, BIM/MCL-1 (Homo sapiens, UniProt O43521); assay: Immunoprecipitation of HA-BIM / V5-Mcl-1 from 293 lysates; type: binding; conditions: 25 uM, 15 min, anti-HA immunoprecipitation, western blot
T1 construct: expressed in transfected cells; host or cells: 293 cells; lysates used
T1 sequence (O43521 whole entry, species assumed): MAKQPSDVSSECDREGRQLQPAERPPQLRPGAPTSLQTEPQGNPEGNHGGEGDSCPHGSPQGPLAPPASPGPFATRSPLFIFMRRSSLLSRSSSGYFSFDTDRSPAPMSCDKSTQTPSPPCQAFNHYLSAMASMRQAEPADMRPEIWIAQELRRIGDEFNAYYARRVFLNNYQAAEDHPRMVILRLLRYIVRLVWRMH
Experimental: (FIG. 10A) Structure of the PUMA inhibitor lead compound (PUMAi). (FIG. 10B) Lysates of 293 cells transfected with individual plasmids for 24 hours were mixed in the indicated combinations. Lysates were incubated with vehicle or PUMA inhibitor (PUMAi, 25 μM) for 15 min before immunoprecipitation with an anti-HA antibody. The HA-bound proteins and input were analyzed by western blotting. (FIG. 10C) Lysates of 293 cells transfected with individual plasmids for 24 h were mixed in the indicated combinations. Lysates were incubated with vehicle or PUMA Inhibitor (PUMAi, 25 μM) for 15 min before immunoprecipitation with an anti-HA antibody. The HA-bound proteins and input were analyzed by western blotting. (FIG. 10D) Indicated colon cancer cell lines were treated with camptothecin (CPT, 500 nM) for 24 h. HCT 116 cells and PUMA KO HCT 116 cells have WT p53, others have no (KO) or mutant p53. Apoptosis was measured by nuclear fragmentation assay. Values are mean+SEM; n=3 independent experiments. (FIG. 10E) Cells were treated as in D for 24 h and analyzed by western blotting. Representative results are shown, and similar results were obtained in at least three independent experiments. […]

[1] = test system: primary human colonic organoids; assay: Human colonic organoids treated with CPT; type: cell-based; conditions: PUMAi 50 uM
Experimental: Fresh mucosal scrapings from 10 cm of jejunum were washed in cold PBS, resuspended in 700 ul of RNA lysis buffer, and homogenized in a Dounce homogenizer. RNA was isolated using the Quick-RNA MiniPrep kit (Zymo Research) according to the manufacturer's instructions. Organoids were freed from Matrigel using Cell Recovery Solution (Corning), as described in, before RNA isolation. Complementary DNA was generated from 2 ug of total RNA from mice or ˜100 ng of total RNA from colonic organoids and was pooled from three mice or three wells of organoid culture per treatment group using SuperScript III reverse transcriptase (Invitrogen) and random primers. Gene expression was normalized to Gapdh. Representative results are shown, and similar results were obtained in at least three independent experiments. Details on mouse and human primers are found in Tables 1 and 2.
Surgically resected intestinal tissues were obtained from Health Science Tissue Bank (HSTB) of UPMC Shadyside Hospital and UPMC Presbyterian Hospital. All samples were obtained with informed consent and approval by the University of Pittsburgh Ethics Committee. Human normal colon crypt isolation and organoid development were performed as previously described with modifications. The complete culture medium for normal human colon organoids contains advanced DMEM/F12 (12634-010, Invitrogen) supplemented with 1× penicillin/streptomycin (15140-122, Invitrogen), 10 mM HEPES (15630-106, Invitrogen), 2 mM GlutaMAX (Invitrogen), 1× B27 (17504-044, Invitrogen), 1XN2 (17502-048, Invitrogen), 1 mM N-Acetylcysteine (A0737, Sigma), 10 nM [leu-15]-Gastrin (G9145, Sigma), 10 mM nicotinamide (N0636, Sigma), 10 μM SB202190 (S7067, Sigma), 50 ng/ml recombinant murine EGF (315-09, Peprotech), 0.5 μM A83-01 (2939, Tocris Bioscience), 10 nM PGE2 (22-961-0, Tocris Bioscience), and 50% WRN-conditioned medium (vol/vol). Freshly isolated crypts were cultured with the same medium plus 10 μM Y-27632 and 100 μg/ml Primocin. Organoids 100 p.m or greater in diameter were enumerated on day 6 after CPT treatment. […]

C57BL/6J mice = assay: Survival and GI injury after three daily doses of CPT-11; type: in vivo, mouse
Excerpt: Immediately after sacrifice, about 10-cm portion of the jejunum was removed and carefully rinsed with ice-cold saline. The tissue was opened longitudinally and tacked to a foam board for fixation overnight in 10% formalin. Tissues were then rolled up into “swiss rolls” and embedded in paraffin. For tumor analysis, flank tumors were removed, measured, and cut into pieces for either formalin fixation or flash freezing in a dry ice/ethanol bath. Tissue sections (5 um) were deparaffinized and rehydrated through graded ethanols. Histological analysis was performed by hematoxylin and eosin (H&E) staining.
; CPT-11). […] . […] BH3-only proteins BIM and NOXA were not induced by CPT-11 or affected by Puma KO (FIG. 8F). […] . […] . Histological analysis confirmed lethal GI injury in WT and p53 KO mice on day 5, showing severe loss of crypts and shortening of villi, which was abrogated in Puma KO mice (FIG. 1F).

Experimental for LGR5+ stem cells: WT and Puma KO mice carrying the Lgr5-EGFP-IRES-creERT2 marking allele were treated with CPT-11 and PUMAi over 2 weeks as in FIGS. 5A-5G and analyzed for intestinal phenotypes. (FIG. 6A) GFP (LGR5) immunofluorescence in intestinal crypts. Arrows indicate LGR5^+ (GFP) crypts. Scale bar, 100 um. (FIG. 6B) Quantitation of intestinal crypts containing at least one GFP^+ (LGR5^+) cell. (FIG. 6C) Top: Olfm4 RNA ISH in intestinal crypts. Scale bar, 50 um. Asterisks indicate Olfm4+ crypt cells. Bottom: Percentage of crypts containing at least one Olfm4+ cell. (FIG. 6D) MMP7 immunofluorescence in intestinal crypts. Scale bar, 100 um. (FIG. 6E) Quantitation of MMP7+ crypt cells at the crypt base (CBC region). (FIG. 6F) Top: GFP (LGR5) and MMP7 immunofluorescence in intestinal crypts. Scale bar, 20 um. Asterisks indicate LGR5^+/MMP7^+ cell pairs. Bottom: Quantitation of LGR5^+/MMP7^+ cell pairs per crypt. In (FIG. 6A), (FIG. 6D), and (FIG. 6F), DAPI was used to stain nuclei. In (FIG. 6B), (FIG. 6C), (FIG. 6E), and (FIG. 6F), values are means+SEM; n=3 mice. *P<0.05, **P<0.01, and ***P<0.001 (one-way ANOVA with Tukey post hoc test).
LGR5 (GFP) IF. Sections were deparaffinized and rehydrated through graded ethanols. Antigen retrieval was performed by boiling for 10 minutes in 0.1 M citrate buffer (pH 6.0) with 1 mM EDTA. Non-specific antibody binding was blocked using 20% goat serum (Invitrogen) at room temperature for 30 min. […] Sections were then washed in PBS and mounted with VectaShield+DAPI (Vector Labs).
MMP7 IF. Sections were prepared as described above. Non-specific antibody binding was blocked using 20% chicken serum (Invitrogen) at room temperature for 30 min. Sections were washed in PBS and incubated overnight at 4 °C in a humidified chamber with 1:100 diluted goat anti-MMP7 (AF2967; R&D Systems). […] Sections were then washed in PBS and mounted with VectaShield+DAPI (Vector Labs) for visualization.
LGR5(GFP)/1VIMP7 IF. Sections were prepared as described above. Non-specific antibody binding was blocked using 20% chicken serum (Invitrogen) at room temperature for 30 min. Sections were then stained for GFP as described above, followed by staining for MMP7 as described.
ISH for Olfm4 was carried out with the RNAscope 2.0 BROWN kit (Advanced Cell Diagnostics) according to the manufacturer's instructions. Briefly, tissue sections were baked for 60 min at 60 ÅåC, then deparaffinized in xylene, and rehydrated through graded ethanols. Sections then underwent three pretreatment steps, probe hybridization, six amplification steps, development, and counterstaining.

`OCCN1CCN(CC(O)COc2ccc3ccccc3c2)CC1` (stereo not drawn) [PUMAi, 1-[4-(2-hydroxyethyl)-1-piperazinyl]-3-(2-naphthyloxy)-2-propanol dihydrochloride] was tested. Which “crypt apoptosis, PUMAi given after CPT-11” value (intestinal crypts; PUMAi 10 mg/kg 1 hour after CPT-11 200 mg/kg, 6 h) did it give?
The value was “still reduced apoptosis effectively”.

And the “TUNEL and active caspase-3 staining in crypts” value (intestinal crypts; PUMAi 10 mg/kg 2 h before CPT-11 200 mg/kg, 6 and 24 h, WT mice)?
The value was “reduced TUNEL and active caspase-3 staining preferentially in the CBCs”.

What about the “crypt apoptosis in Puma KO mice” value (intestinal crypts; Puma KO mice, CPT-11 200 mg/kg, 6 h) of the same compound?
Its value is “did not further reduce crypt apoptosis”.

And the “inhibition of BIM/MCL-1 interaction” value (BIM/MCL-1)?
The value was “not of BIM/MCL-1”.

And the “drop in Olfm4+ crypts (RNA ISH)” value (LGR5+ stem cells; after six doses of CPT-11)?
The value was 49%.

And the “loss and mislocalization of MMP7+ cells and of MMP7+/LGR5+ contact” value (LGR5+ stem cells; repeated CPT-11 treatment)?
The value was “suppressed”.

And the “CPT-induced caspase-3 activation” value ([1]; 24 h after CPT)?
Its value is “inhibited CPT-induced caspase-3 activation”.

What about the “CPT-induced expression of WNT and NOTCH targets” value ([1]; 24 h after CPT) of the same compound?
Its value is “suppressed CPT-induced expression of WNT and NOTCH targets”.

And the “organoid growth after CPT” value ([1]; CPT 500 nM 24 h, day 6)?
The value was “enhanced organoid growth”.

And the “survival at the LD90 of CPT-11” value (C57BL/6J mice; CPT-11 215 mg/kg per day x3, PUMAi 10 mg/kg 2 h before each dose, WT mice)?
Its value is 70%.

And the CPT-11-induced lethality (C57BL/6J mice; CPT-11 180, 215, 250 mg/kg/day x3, PUMAi 10 mg/kg)?
The CPT-11-induced lethality was “decreased CPT-11-induced lethality at three different doses”.

What about the “GI injury by histological analysis” value (C57BL/6J mice; day 5, CPT-11 215 mg/kg per day x3, compared to WT mice) of the same compound?
Its value is “reduced GI injury”.
